How the values were obtained:
COLO 320 = assay: Cytotoxicity against human COLO 320 cells assessed as reduction in cell viability measured after 24 hrs by MTT assay; format: functional, cell-based; conditions: COLO 320, 24 h
[1] = target: ATP-dependent translocase ABCB1 (Homo sapiens, UniProt P08183); assay: Inhibition of P-gp in human COLO 320 cells assessed as potentiation of doxorubicin-induced cytotoxicity by measuring combination index measured after 72 hrs by checkerboard assay; format: cell-based; conditions: colo 320, 72 h
Sequence of ATP-dependent translocase ABCB1 (P08183 whole entry): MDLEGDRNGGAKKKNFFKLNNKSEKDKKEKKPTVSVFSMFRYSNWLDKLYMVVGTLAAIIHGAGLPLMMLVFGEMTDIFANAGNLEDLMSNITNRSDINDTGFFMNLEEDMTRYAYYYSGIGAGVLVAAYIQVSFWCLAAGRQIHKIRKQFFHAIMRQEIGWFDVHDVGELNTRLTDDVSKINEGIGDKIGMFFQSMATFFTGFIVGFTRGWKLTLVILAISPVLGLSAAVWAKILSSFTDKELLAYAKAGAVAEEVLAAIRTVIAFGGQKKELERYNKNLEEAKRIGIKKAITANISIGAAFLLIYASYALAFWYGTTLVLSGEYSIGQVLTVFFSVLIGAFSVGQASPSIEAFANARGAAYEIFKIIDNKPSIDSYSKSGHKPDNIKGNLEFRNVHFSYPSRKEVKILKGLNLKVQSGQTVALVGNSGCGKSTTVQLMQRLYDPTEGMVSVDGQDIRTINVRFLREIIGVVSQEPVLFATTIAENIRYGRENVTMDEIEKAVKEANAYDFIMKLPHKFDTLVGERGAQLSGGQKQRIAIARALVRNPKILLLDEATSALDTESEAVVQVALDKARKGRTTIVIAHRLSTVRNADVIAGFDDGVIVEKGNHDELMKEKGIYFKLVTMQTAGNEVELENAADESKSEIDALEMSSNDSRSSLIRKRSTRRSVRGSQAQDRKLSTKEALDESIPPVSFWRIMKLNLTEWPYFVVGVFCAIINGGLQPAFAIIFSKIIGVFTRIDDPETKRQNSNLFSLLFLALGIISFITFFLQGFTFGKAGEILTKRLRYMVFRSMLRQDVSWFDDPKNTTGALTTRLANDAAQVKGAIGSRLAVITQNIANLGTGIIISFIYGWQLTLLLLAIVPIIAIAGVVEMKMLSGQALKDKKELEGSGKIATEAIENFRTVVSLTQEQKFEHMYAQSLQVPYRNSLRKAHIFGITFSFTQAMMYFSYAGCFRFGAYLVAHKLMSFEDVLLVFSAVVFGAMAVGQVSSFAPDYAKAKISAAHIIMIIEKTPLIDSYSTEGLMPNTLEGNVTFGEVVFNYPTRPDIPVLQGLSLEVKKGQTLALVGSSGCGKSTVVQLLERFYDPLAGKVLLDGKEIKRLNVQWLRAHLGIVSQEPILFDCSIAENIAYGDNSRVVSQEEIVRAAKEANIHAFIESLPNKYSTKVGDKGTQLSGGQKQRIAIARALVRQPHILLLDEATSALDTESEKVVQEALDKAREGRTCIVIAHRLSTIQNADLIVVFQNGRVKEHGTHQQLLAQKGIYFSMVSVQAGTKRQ

COLO 205 = assay: Cytotoxicity against human COLO 205 cells assessed as reduction in cell viability measured after 24 hrs by MTT assay; format: functional, cell-based; conditions: COLO 205, 24 h

With `CC(C)[C@@H](C)/C=C/[C@@H](C)[C@H]1CC[C@H]2C3=CC[C@H]4CC(=O)CC[C@]4(C)[C@H]3CC[C@]12C` as the compound, how does the IC50 (COLO 320) read?
The IC50 was 8.4 µM.

And the CI50 [1]?
The CI50 was 0.521.

What about the IC50 (COLO 205) of the same compound?
Its IC50 is 11.6 µM.

Reference: ChEMBL document CHEMBL5120791, “Triterpenes from Pholiota populnea as Cytotoxic Agents and Chemosensitizers to Overcome Multidrug Resistance of Cancer Cells” (J Nat Prod, 2022)
